Test results: patent US20260265262A1, “CDK2 INHIBITORS AND METHODS OF USING THE SAME” (Cedilla Therapeutics, Inc., priority 2022, published 2026)

Assays:
CDK2/Cyclin E1 [1] = target: T1, CDK2/Cyclin E1 (Homo sapiens, UniProt P24941); assay: CDK2/Cyclin E1 Caliper LabChip EZ Reader mobility shift assay; format: biochemical; details: 2.5 nM CDK2/Cyclin E1, 100 μM ATP, 1.5 μM fluorescent peptide, 30 min pre-incubation; read-out: Caliper Assay (CDK2/CCNE1): IC50
Procedure: Inhibition of CDK2/Cyclin E1 activity in the presence of compounds of the present disclosure was evaluated using a CaliperLabChip® EZ Reader mobility shift assay. In the assay, CDK2/Cyclin E1 (Eurofins, 14-475) catalyzed the phosphorylation of a fluorescently tagged peptide 5-FAM-QSPKKG-CONH2 (PerkinEliner, FL Peptide 18) which induced a difference in capillary electrophoresis mobility. The peptide substrate and product were measured, and the conversion ratio was used to determine the inhibition (as % activity and IC50 values) of CDK2/Cyclin E1. Reactions contained 50 mM HEPES pH 7.5, 10 mM MgCl2, 1 mM EDTA, 2 mM DTT, 0.01% Brij35, 0.5 mg/mL BSA, 0.1% DMSO, 2.5 nM CDK2/Cyclin E1, 100 μM ATP, and 1.5 μM fluorescent peptide substrate.
Dose titrations of inhibitors in 100% DMSO were combined with 3.25 nM CDK2/Cyclin E1 and 130 μM of ATP in reaction buffer. The mixtures were incubated for 30 minutes before the addition of fluorescent peptide substrate to initiate the kinase reaction. The final conditions were 2.5 nM CDK2/Cyclin E1, 100 μM ATP, and 1.5 μM fluorescent peptide. The reactions were stopped after 100 minutes with the addition of EDTA (400 mM final EDTA concentration). The stopped reactions were analyzed on a Caliper LabChip® EZ Reader II. The conversion ratios were normalized to yield % activity, plotted against compound concentration, and fit to a four-parameter equation to determine the IC50 for each compound.

CDK2/Cyclin E1 [2] = target: T1, CDK2/Cyclin E1; assay: ADP-Glo Luminescent Kinase Assay (CDK2/E1-37C); format: biochemical; details: 0.18 nM CDK2/Cyclin E1, 100 μM ATP, 1.5 μM Histone H1, 37° C., 60 min pre-incubation; read-out: ADPGLO (CDK2/E1-37C): IC50
Summary of the method: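 Human CDK2/Cyclin E1 preincubated with inhibitor 60 min at 37 °C, then reacted 90 min at 37 °C with final 0.18 nM enzyme, 100 μM ATP, 1.5 μM Histone H1 in HEPES pH 7.5 buffer. ADP formed read by ADP-Glo luminescence; IC50 from four-parameter fit.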

Kuramochi cells = assay: IncuCyte cell proliferation assay; format: cell-based; details: Kuramochi cells labeled with mApple-H2B, cell count 0 to 72 hours, 20 μM top concentration; read-out: IncuCyte Kuramochi RB-WT: IC50
Summary of the method: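 Kuramochi cells expressing mApple-H2B were treated with a 10-point, ½-log dilution series (top 20 μM). Fluorescent nuclei were counted by IncuCyte imaging at 0 and 72 h. The fold change in cell count was normalized to DMSO wells and fitted to dose-response curves to give […].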

| IC50 (CDK2/Cyclin E1 [1]) [µM] | IC50 (CDK2/Cyclin E1 [2]) [µM] | Compound | IC50 (Kuramochi cells) [µM] |
| --- | --- | --- | --- |
| < 0.01 | < 0.5 | C[C@@H](OCC1CCC2(CCC2)CC1)[C@H](NC(=O)[C@@H]1CN(C(=O)c2cnn(Cc3ccccc3)c2)CC12CN(C(=O)[C@H]1CC1(C)C)C2)C(=O)O [Example I-40, N—((S)-6-(1-benzyl-1H-pyrazole-4-carbonyl)-2-((S)-2,2-dimethylcyclopropane-1-carbonyl)-2,6-diazaspiro[3.4]octane-8-carbonyl)-O-(spiro[3.5]nonan-7-ylmethyl)-L-threonine] | > 20 |
| < 0.01 | < 0.5 | C[C@@H](OCC1CCCCC1)[C@H](NC(=O)[C@@H]1CN(C(=O)c2cnn(Cc3ccccc3)c2)CC12CN(C(=O)[C@H]1CC1(C)C)C2)C(=O)NCCC(=O)O [Example I-41, 3-((2S,3R)-2-((S)-6-(1-benzyl-1H-pyrazole-4-carbonyl)-2-((S)-2,2-dimethylcyclopropane-1-carbonyl)-2,6-diazaspiro[3.4]octane-8-carboxamido)-3-(cyclohexylmethoxy)butanamido)propanoic acid] | > 20 |
| < 0.01 | < 0.5 | COC(=O)CCNC(=O)[C@@H](NC(=O)[C@@H]1CN(C(=O)c2cnn(Cc3ccccc3)c2)CC12CN(C(=O)[C@H]1CC1(C)C)C2)[C@@H](C)OCC1CCCCC1 [Example I-42] | < 0.5 |
| < 0.01 | < 0.5 | COC(=O)[C@@H](NC(=O)[C@@H]1CN(C(=O)c2cnn(Cc3ccccc3)c2)CC12CN(C(=O)[C@H]1CC1(C)C)C2)[C@@H](C)OCC1CCC2(CCC2)CC1 [Example I-43] | 0.5 to 5 |
| > 10 | > 100 | C[C@@H](OCC12CCC(CC1)OC2)[C@H](NC(=O)[C@@H]1CN(C(=O)c2cncs2)CC12CN(CC1CCCO1)C2)C(=O)N1CCC(c2nccs2)CC1 (stereo partly drawn) [Example I-44, (8S)—N-((2S,3R)-3-((2-oxabicyclo[2.2.2]octan-4-yl)methoxy)-1-oxo-1-(4-(thiazol-2-yl)piperidin-1-yl)butan-2-yl)-2-((tetrahydrofuran-2-yl)methyl)-6-(thiazole-5-carbonyl)-2,6-diazaspiro[3.4]octane-8-carboxamide] | > 20 |
| < 0.01 | < 0.5 | C[C@@H](OCC1CCCCC1)[C@H](NC(=O)[C@@H]1CN(C(=O)c2cnn(Cc3ccccc3)c2)CC12CN(C(=O)[C@H]1CC1(C)C)C2)C(=O)N1CCC(c2ccc(C(=O)O)cc2)CC1 [Example I-45] | 0.5 to 5 |
| < 0.01 | < 0.5 | C[C@@H](OCC1CCCCC1)[C@H](NC(=O)[C@@H]1CN(C(=O)c2cnn(Cc3ccccc3)c2)CC12CN(C(=O)[C@H]1CC1(C)C)C2)C(=O)N1CCC[C@@H](C(=O)O)C1 [Example I-46] | > 20 |
| < 0.01 | < 0.5 | CCOC(=O)C(F)(F)CNC(=O)[C@@H](NC(=O)[C@@H]1CN(C(=O)c2cnn(Cc3ccccc3)c2)CC12CN(C(=O)[C@H]1CC1(C)C)C2)[C@@H](C)OCC1CCCCC1 [Example I-47, ethyl 3-((2S,3R)-2-((S)-6-(1-benzyl-1H-pyrazole-4-carbonyl)-2-((S)-2,2-dimethylcyclopropane-1-carbonyl)-2,6-diazaspiro[3.4]octane-8-carboxamido)-3-(cyclohexylmethoxy)butanamido)-2,2-difluoropropanoate] | 5 to 20 |
| 0.1 to 1 | > 10 | CNC(=O)[C@@H](NC(=O)[C@@H]1CN(C(=O)c2cncs2)CC12CN(CC1CCCO1)C2)[C@@H](C)OCC1(CO)CC=CCC1 (stereo partly drawn) [Example I-49] | > 20 |
